Experimental data taken from patent US8569487B2, “Pyridazine compound and use thereof” (priority 2006, dated 2013).
Where two headings read alike, the source gives them in different places.

Assays:
[1] = tested on: MH4 cells; assay: Cytotoxicity, CellTiter-Glo Luminescence Cell Viability assay, MH4; type: cell-based; conditions: HCV replicon-containing cell line
[2] = tested on: HCV genotype 2a subgenomic replicon; assay: HCV genotype 2a subgenomic replicon in Huh-7 cells, NS3 protease activity readout; type: cell-based
Experimental: (§1) The antiviral activity of compound (1) against HCV genotype 2a was tested in cells chronically infected with the genotype 2a virus as well as in cells replicating a subgenomic 2a replicon. Huh-7 cells containing chronically replicating HCV genotype 2a (J6/JFH-Rluc) virus or subgenomic replicons were cultured with compound (1) or 2′CMeA for 3 days in the absence of human serum albumin. After cultivation, the amount of luciferase in 2a-virus containing cells and HCV NS3 protease activity in the 2a replicon-containing cells was determined using Promega's luciferase assay and a novel time-resolved fluorescence assay, respectively.

[3] = tested on: HCV genotype 2a (J6/JFH-Rluc) virus; assay: Huh-7 cells chronically infected with HCV genotype 2a (J6/JFH-Rluc) virus, luciferase assay; type: cell-based; conditions: 3 days, absence of HSA
Experimental: as §1

[4] = tested on: Huh-7 lucneo cells; assay: Cytotoxicity, CellTiter-Glo Luminescence Cell Viability assay, Huh-7 lucneo; type: cell-based
[5] = tested on: SL3 cells; assay: Cytotoxicity, CellTiter-Glo Luminescence Cell Viability assay, SL3; type: cell-based; conditions: HCV replicon-containing cell line
[6] = tested on: MT4 cells; assay: Cytotoxicity, CellTiter-Glo Luminescence Cell Viability assay, MT4; type: cell-based
[7] = tested on: HCV genotype 1a (H77/neo) replicon; assay: HCV genotype 1a (H77/neo) replicon, quantitative real-time PCR assay; type: cell-based; conditions: 3 days, absence of HSA
Experimental: (§2) HCV genotype 1b (Con-1/lucneo) and 1a (H77/neo) replicon cells were incubated with serial dilutions of compound (1) 2′C-methyl adenosine (2′CMeA) or IFNα for 3 days in the absence or presence of 40 mg/mL human serum albumin (HSA).

[8] = tested on: HepG2 cells; assay: Cytotoxicity, CellTiter-Glo Luminescence Cell Viability assay, HepG2; type: cell-based
[9] = tested on: HCV genotype 1b (Con-1/lucneo) replicon; type: cell-based
Experimental: as §2

[10] = Intrinsic solubility and pH solubility profile; type: physicochemical; conditions: pH 7.3
[11] = Phase-1 first-in-human trial, safety/tolerability; type: in vivo
Experimental: (§3) A randomized, double-blind, placebo controlled trial was designed to evaluate the safety/tolerability, phamacokinetics and antiviral activity of single (in Part A) and multiple (in Part B) doses of Compound (1) (oleic acid solution, above) in subjects chronically infected with HCV genotype 1 (GT-1) without decompensated cirrhosis.
(§4) In ongoing Part B, four successive cohorts of 12 subjects are randomized (10:2) to receive multiple ascending doses of Compound 1 (40 mg BID, 120 mg BID, 240 mg QD, 240 mg BID) or placebo, over 8 days.

[12] = Phase-1 first-in-human trial, pharmacokinetics; type: in vivo
Experimental: as §3, §4

[13] = tested on: HCV genotype 1; assay: Phase-1 first-in-human trial, antiviral activity (HCV RNA decline); type: in vivo; conditions: following single-dose exposure
Experimental: as §3, §4

[14] = tested on: HCV replicon cells; assay: In vitro combination study with IFN-α in replicon cells (MacSynergy); type: cell-based; conditions: MacSynergy analysis
Experimental: Pegylated interteron-α (PEG-IFN-α), in combination with ribavirin, represents the current standard of care for HCV-infected patients. In vitro combination studies of compound (1) and IFN-α were performed in replicon cells. Data was analyzed using the MacSynergy template developed by Prichard and Shipman.

[15] = tested on: HCV replicon; assay: Anti-HCV replicon activity compared with prior art compound of formula (4); type: cell-based
Excerpt: The anti-HCV replicon activity of compound (1) was compared to that of a prior art (WO 05/063744) compound, the compound of formula (4)

[16] = non-replicon-containing cell line

C[C@@]1(O)[C@H](O)[C@@H](CO)O[C@H]1n1cnc2c(N)ncnc21 [2′CMeA, 2′C-methyl adenosine, reference compound]
CC50 [1]: 16 µM | EC50 ([2]; Huh-7 cells, 3 days, absence of HSA, read-out: EC50 HCV 2a (subgenomic replicon)): 1.61 ± 1.1 µM | EC50 ([3]; read-out: EC50 HCV-2a (reporter virus)): 194 ± 26 nM | CC50 ([4]; HCV replicon-containing cell line): 7.2 ± 6 µM | CC50 [5]: 3.9 µM | CC50 [6, 16]: 3.5 ± 1.9 µM | EC50 [7]: 170 nM | CC50 [8, 16]: 24.3 ± 2.1 µM | EC50 ([9]; 3 days, absence of HSA, read-out: EC50 HCV 1b-lucneo (subgenomic replicon)): 175 ± 70 nM | EC50 ([9]; read-out: EC50 HCV 1b-lucneo 40 mg/mL HSA, 3 days, presence of 40 mg/mL human serum albumin): 250 nM

Fc1ccccc1-c1nc2ccn(Cc3ccc(-c4ccc(C(F)(F)F)cc4C(F)(F)F)nn3)cc-2n1 [Compound 1, 5-({6-[2,4-bis(trifluoromethyl)phenyl]pyridazin-3-yl}methyl)-2-(2-fluorophenyl)-5H-imidazo[4,5-c]pyridine]
CC50 [1]: > 50 µM | EC50 ([2]; Hepatitis C virus, 72 h, Huh-7 cells, 3 days, absence of HSA, read-out: EC50 HCV 2a (subgenomic replicon)): 21.9 ± 19 µM | EC50 ([2]; Hepatitis C virus, Huh-7, 72 h, read-out: EC50 2a subgenomic replicon model): 21.9 µM | anti-HCV replicon activity against genotype 2a ([2]; compared with genotypes 1a and 1b): substantially less active | toxic effects at the highest concentration tested ([4]; 50 μM, any of the cell lines Huh-7, SL3, MH4, HepG2, MT4): No toxic effects | cytotoxicity in Huh-7 cells ([4]; human, Huh-7 lucneo cells (HCV replicon-containing)): > 50,000 nM | pH solubility profile, geometric mean (3 lots) [10]: 0.7 micrograms/ml | CC50 [5]: > 50 µM | tolerability of single doses ([11]; single doses 40-480 mg, HCV GT-1 infected subjects, no serious or treatment-limiting adverse events): well tolerated | treatment emergent laboratory abnormalities ([11]; single doses, Part A): no Grade 3 or 4 treatment emergent laboratory abnormalities | most common adverse event ([11]; single doses, Part A, all AEs mild except one moderate headache): headache | mean concentration 24 hours after dosing relative to protein binding adjusted in vitro HCV GT-1b Replicon EC50 ([12]; 240 mg fasted single dose): ~7 fold | increase of systemic exposure when administered with a high fat meal ([12]; HCV GT-1 infected subjects, single dose with food versus fasted): approximately 2 fold | cytotoxicity in MT4 cells ([6]; human): > 50,000 nM | time of maximal antiviral effect [13]: 24 h | cytotoxicity in HepG2 cells ([8]; human): > 50,000 nM | interaction between compound (1) and IFN-α [14]: additive interaction | times more potent than the compound of formula (4) [15]: about 330 times | selectivity index (CC50/EC50) ([9]; CC50 in cell lines versus EC50 in HCV-1b and HCV-1a replicons): 13,000-80,000

IFN-α
EC50 HCV-2a (reporter virus) [3]: 1.2 IU/mL | EC50 HCV 1b-lucneo (subgenomic replicon) ([9]; 3 days, absence of HSA): 2 IU/mL
